According to US10294202B2, “Pyrrolidinones as herbicides” (FMC Corporation, priority 2013, dated 2019):

Assays:
[1] = system: nightshade; assay: Test C pre-/postemergence herbicide test; format: in vivo, Solanum ptycanthum; conditions: Preemergence
Text: Seeds of plant species selected from blackgrass (Alopecurus myosuroides), ryegrass, Italian (Italian ryegrass, Lolium multiflorum), wheat (winter wheat, Triticum aestivum), galium (catchweed bedstraw, Galium aparine), corn (Zea mays), crabgrass, large (large crabgrass, Digitaria sanguinalis), foxtail, giant (giant foxtail, Setaria faberii), johnsongrass (Sorghum halepense), lambsquarters (Chenopodium album), morningglory (Ipomoea coccinea), nutsedge, yellow (yellow nutsedge, Cyperus esculentus), pigweed (Amaranthus retroflexus), ragweed (common ragweed, Ambrosia elatior), soybean (Glycine max), barnyardgrass (Echinochloa crus-galli), oilseed rape (Brassica napus), waterhemp (common waterhemp, Amaranthus rudis), kochia (Kochia scoparia), oat, wild (wild oat, Avena fatua), surinam grass (Brachiaria decumbens), foxtail, green (green foxtail, Setaria viridis), goosegrass (Eleusine indica), bromegrass, downy (downy bromegrass, Bromus tectorum), nightshade (eastern black nightshade, Solanum ptycanthum), cocklebur (common cocklebur, Xanthium strumarium), cupgrass, woolly (woolly cupgrass, Eriochloa villosa), bermudagrass (Cynodon dactylon), sunflower, (common oilseed sunflower, Helianthus annuus), Russian thistle (Salsola kali) and velvetleaf (Abutilon theophrasti) were planted into a blend of loam soil and sand and treated preemergence with test chemicals formulated in a non-phytotoxic solvent mixture which included a surfactant. At the same time, plants selected from these crop and weed species and also barley (winter barley, Hordeum vulgare), […]), chickweed (common chickweed, Stellaria media), deadnettle (henbit deadnettle, Lamium amplexicaule), and canarygrass (littleseed canarygrass, Phalaris minor) were planted in pots containing Redi-Earth® planting medium (Scotts Company, 14111 Scottslawn Road, Marysville, Ohio 43041) comprising spaghnum peat moss, vermiculite, wetting agent and starter nutrients and treated with postemergence applications of test chemicals formulated in the same manner. Plants ranged in height from 2 to 18 cm (1- to 4-leaf stage) for postemergence treatments. Treated plants and controls were maintained in a greenhouse for 13 to 15 days, after which time all species were compared to controls and visually evaluated. Plant response ratings, summarized in Table C, are based on a scale of 0 to 100 where 0 is no effect and 100 is complete control. A dash (-) response means no test result.

[2] = system: waterhemp; assay: Test E preemergence herbicide test; format: in vivo, Amaranthus rudis; design: key: 0 = no effect, 100 = complete control
Text: (§1) Seeds of plant species selected from corn (Zea mays), soybean (Glycine max), velvetleaf (Abutilon theophrasti), lambsquarters (Chenopodium album), wild poinsettia (Euphorbia heterophylla), pigweed, palmer (palmer pigweed, Amaranthus palmeri), waterhemp (common waterhemp, Amaranthus rudis), surinam grass (Brachiaria decumbens), crabgrass, large (large crabgrass, Digitaria sanguinalis), crabgrass, Brazil (Brazilian crabgrass, Digitaria horizontalis), panicum, fall (fall panicum, Panicum dichotomiflorum), foxtail, giant (giant foxtail, Setaria faberii), foxtail, green (green foxtail, Setaria viridis), goosegrass (Eleusine indica), johnsongrass (Sorghum halepense), ragweed (common ragweed, Ambrosia elatior), barnyardgrass (Echinochloa crus-galli), sandbur (southern sandbur, Cenchrus echinatus), arrowleaf […] rhombifolia), ryegrass, Italian (Italian ryegrass, Lolium multiflorum), dayflower, VA (Virginia dayflower, Commelina virginica), field bindweed (Convolvulus arvensis), morningglory (Ipomoea coccinea), nightshade (eastern black nightshade, Solanum ptycanthum), kochia (Kochia scoparia), nutsedge, yellow (yellow nutsedge, Cyperus esculentus), cocklebur (common cocklebur, Xanthium strumarium), smartweed (ladysthumb smartweed, Polygonum Persicaria) and beggarticks (hairy beggarticks, Bidens pilosa), were planted into a silt loam soil and treated preemergence with test chemicals formulated in a non-phytotoxic solvent mixture which included a surfactant. Treated plants and controls were maintained in a greenhouse for 21 days, after which time all species were compared to controls and visually evaluated. Plant response ratings, summarized in Table E, are based on a scale of 0 to 100 where 0 is no effect and 100 is complete control. A dash (-) response means no test result.

[3] = system: crabgrass, large; assay: Test E preemergence herbicide test; format: in vivo, Digitaria sanguinalis; design: key: 0 = no effect, 100 = complete control
Outline: (§2)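 Test chemicals, formulated in a surfactant-containing non-phytotoxic solvent blend, are applied preemergence to seeded silt loam soil. After 21 days in the greenhouse, response is scored visually relative to controls, where 100 means complete control and 0 means no effect.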

[4] = system: field violet; assay: Test D pre-/postemergence herbicide test; format: in vivo, Viola arvensis; conditions: Postemergence, Field Violet, scale 0 to 100
Text: Seeds of plant species selected from bluegrass (annual bluegrass, Poa annua), blackgrass (Alopecurus myosuroides), canarygrass (littleseed canarygrass, Phalaris minor), chickweed (common chickweed, Stellaria media), galium (catchweed bedstraw, Galium aparine), bromegrass, downy (downy bromegrass, Bromus tectorum), field poppy (Papaver rhoeas), field violet (Viola arvensis), foxtail, green (green foxtail, Setaria viridis), deadnettle (henbit deadnettle, Lamium amplexicaule), ryegrass, Italian (Italian ryegrass, Lolium multiflorum), kochia (Kochia scoparia), lambsquarters (Chenopodium album), oilseed rape (Brassica napus), pigweed (Amaranthus retroflexus), chamomile (scentless chamomile, Matricaria inodora), Russian thistle (Salsola kali), speedwell (bird's-eye speedwell, Veronica persica), barley, spring (spring barley, Hordeum vulgare), wheat, spring (spring wheat, Triticum aestivum), buckwheat, wild (wild buckwheat, Polygonum convolvulus), mustard, wild (wild mustard, Sinapis arvensis), oat, wild (wild oat, Avena fatua), radish, wild (wild radish, Raphanus raphanistrum), […]), barley, winter (winter barley, Hordeum vulgare), and wheat, winter (winter wheat, Triticum aestivum) were planted into a silt loam soil and treated preemergence with test chemicals formulated in a non-phytotoxic solvent mixture which included a surfactant. At the same time, these species were planted in pots containing Redi-Earth® planting medium (Scotts Company, 14111 Scottslawn Road, Marysville, Ohio 43041) comprising spaghnum peat moss, vermiculite, wetting agent and starter nutrients and treated with postemergence applications of the test chemicals formulated in the same manner. Plants ranged in height from 2 to 18 cm (1- to 4-leaf stage). Treated plants and controls were maintained in a controlled growth environment for 7 to 21 days after which time all species were compared to controls and visually evaluated. Plant response ratings, summarized in Table D, are based on a scale of 0 to 100 where 0 is no effect and 100 is complete control. A dash (-) response means no test result.

[5] = system: pigweed, palmer; assay: Test E preemergence herbicide test; format: in vivo, Amaranthus palmeri; design: key: 0 = no effect, 100 = complete control
Outline: as §2

[6] = system: dayflower, VA; assay: Test E preemergence herbicide test; format: in vivo, Commelina virginica; design: key: 0 = no effect, 100 = complete control
Text: as §1

[7] = 125 g ai/ha, scale 0 to 100 (0 no effect, 100 complete control)

O=C1NCC(c2ccc(F)c(Cl)c2)C1C(=O)Nc1ccccc1F (centres unmarked) [Compound 60] was tested, and the “Plant response rating, Nightshade” value ([1]; 62 g ai/ha, scale 0 to 100) was 0 and the “Plant response rating, Nightshade” value [1, 7] was 0.

With O=C1NCC(c2cc(F)c(F)c(F)c2)C1C(=O)Nc1cccc(F)c1F (centres unmarked) [Compound 48] the “Plant response rating, Nightshade” value ([1]; 62 g ai/ha, scale 0 to 100) was 0, the “Plant response rating, Nightshade” value [1, 7] was 0 and the “Plant response rating, Nightshade” value ([1]; 16 g ai/ha, scale 0 to 100) was 0.

With O=C1NCCC1C(=O)N(c1ccc(F)c(F)c1)c1ccccc1F (centres unmarked) [Compound 5, N-(3,4-difluorophenyl)-N-(2-fluorophenyl)-2-oxo-3-pyrrolidinecarboxamide] the “Plant response rating, Nightshade” value ([1]; 62 g ai/ha, scale 0 to 100) was 45 and the “Plant response rating, Nightshade” value [1, 7] was 45.

For O=C1NCC(c2ccc(F)c(F)c2)C1C(=O)Nc1cccc(F)c1F (centres unmarked) [Compound 17, N-(2,3-difluorophenyl)-4-(3,4-difluorophenyl)-2-oxo-3-pyrrolidinecarboxamide], the “Plant response rating, Waterhemp” value ([2]; 16 g ai/ha) was 0, the “Plant response rating, Waterhemp” value ([2]; 31 g ai/ha) was 0 and the “Plant response rating, Waterhemp” value ([2]; 62 g ai/ha) was 0. The “Plant response rating, Waterhemp” value ([2]; 125 g ai/ha) was 0, the “Plant response rating, Waterhemp” value ([2]; 250 g ai/ha) was 0 and the “Plant response rating, Nightshade” value ([1]; 62 g ai/ha, scale 0 to 100) was 20. For the same compound, the “Plant response rating, Nightshade” value [1, 7] was 40, the “Plant response rating, Crabgrass, Large” value ([3]; 16 g ai/ha) was 15 and the “Plant response rating, Crabgrass, Large” value ([3]; 31 g ai/ha) was 20. The “Plant response rating, Crabgrass, Large” value ([3]; 62 g ai/ha) was 70, the “Plant response rating, Crabgrass, Large” value ([3]; 125 g ai/ha) was 75 and the “Plant response rating, Crabgrass, Large” value ([3]; 250 g ai/ha) was 95. The Plant response rating ([4]; 16 g ai/ha) was 0, the Plant response rating ([4]; 31 g ai/ha) was 0 and the Plant response rating ([4]; 62 g ai/ha) was 0. For the same compound, the Plant response rating ([4]; 125 g ai/ha) was 0, the Plant response rating ([4]; 250 g ai/ha) was 10 and the “Plant response rating, Pigweed, Palmer” value ([5]; 16 g ai/ha) was 0. For the same compound, the “Plant response rating, Pigweed, Palmer” value ([5]; 31 g ai/ha) was 0, the “Plant response rating, Pigweed, Palmer” value ([5]; 62 g ai/ha) was 0 and the “Plant response rating, Pigweed, Palmer” value ([5]; 125 g ai/ha) was 0. The “Plant response rating, Pigweed, Palmer” value ([5]; 250 g ai/ha) was 0, the “Plant response rating, Dayflower, VA” value ([6]; 16 g ai/ha) was 0 and the “Plant response rating, Dayflower, VA” value ([6]; 31 g ai/ha) was 0. For the same compound, the “Plant response rating, Dayflower, VA” value ([6]; 62 g ai/ha) was 0, the “Plant response rating, Dayflower, VA” value ([6]; 125 g ai/ha) was 0 and the “Plant response rating, Dayflower, VA” value ([6]; 250 g ai/ha) was 0.

O=C1NCC(c2ccc(Cl)c(F)c2)C1C(=O)Nc1cccc(F)c1F (centres unmarked) [Compound 52] was tested, and the “Plant response rating, Nightshade” value ([1]; 62 g ai/ha, scale 0 to 100) was 0, the “Plant response rating, Nightshade” value [1, 7] was 0 and the Plant response rating ([4]; 16 g ai/ha) was 0. It also gave a Plant response rating ([4]; 31 g ai/ha) of 0, a Plant response rating ([4]; 62 g ai/ha) of 0 and a Plant response rating ([4]; 125 g ai/ha) of 0. The Plant response rating ([4]; 250 g ai/ha) was 0.

O=C1NCC(c2ccc(Cl)c(Cl)c2)C1C(=O)Nc1ccccc1F (racemic) [Compound 14] was tested, and the “Plant response rating, Waterhemp” value ([2]; 16 g ai/ha) was 0, the “Plant response rating, Waterhemp” value ([2]; 31 g ai/ha) was 0 and the “Plant response rating, Waterhemp” value ([2]; 62 g ai/ha) was 0. The “Plant response rating, Waterhemp” value ([2]; 125 g ai/ha) was 0, the “Plant response rating, Waterhemp” value ([2]; 250 g ai/ha) was 0 and the “Plant response rating, Nightshade” value ([1]; 62 g ai/ha, scale 0 to 100) was 0. The “Plant response rating, Crabgrass, Large” value ([3]; 16 g ai/ha) was 0, the “Plant response rating, Crabgrass, Large” value ([3]; 62 g ai/ha) was 25 and the “Plant response rating, Crabgrass, Large” value ([3]; 125 g ai/ha) was 90. For the same compound, the “Plant response rating, Crabgrass, Large” value ([3]; 250 g ai/ha) was 90, the “Plant response rating, Pigweed, Palmer” value ([5]; 16 g ai/ha) was 0 and the “Plant response rating, Pigweed, Palmer” value ([5]; 31 g ai/ha) was 0. For the same compound, the “Plant response rating, Pigweed, Palmer” value ([5]; 62 g ai/ha) was 0, the “Plant response rating, Pigweed, Palmer” value ([5]; 125 g ai/ha) was 0 and the “Plant response rating, Pigweed, Palmer” value ([5]; 250 g ai/ha) was 0. For the same compound, the “Plant response rating, Dayflower, VA” value ([6]; 16 g ai/ha) was 0, the “Plant response rating, Dayflower, VA” value ([6]; 31 g ai/ha) was 0 and the “Plant response rating, Dayflower, VA” value ([6]; 62 g ai/ha) was 0. For the same compound, the “Plant response rating, Dayflower, VA” value ([6]; 125 g ai/ha) was 0 and the “Plant response rating, Dayflower, VA” value ([6]; 250 g ai/ha) was 0.

With O=C1NCC(c2cccc(OC(F)(F)F)c2)C1C(=O)Nc1ccccc1F (centres unmarked) [Compound 69] the “Nightshade plant response rating” value ([1]; 31 g ai/ha, scale 0 to 100, 0 is no effect and 100 is complete control) was 0, the “Plant response rating, Nightshade” value ([1]; 62 g ai/ha, scale 0 to 100) was 0 and the “Plant response rating, Nightshade” value [1, 7] was 0. For the same compound, the “Plant response rating (scale of 0 to 100), Nightshade” value ([1]; 250 g ai/ha) was 0.
